Data: PMC6616128, “Liquiritin, as a Natural Inhibitor of AKR1C1, Could Interfere With the Progesterone Metabolism” (Frontiers in Physiology, 2019)
Read-outs that look alike come from different tables or passages of the source.

Biological target: T1, AKR1C1 (Homo sapiens, UniProt Q04828)
T1 sequence (Q04828 1-323): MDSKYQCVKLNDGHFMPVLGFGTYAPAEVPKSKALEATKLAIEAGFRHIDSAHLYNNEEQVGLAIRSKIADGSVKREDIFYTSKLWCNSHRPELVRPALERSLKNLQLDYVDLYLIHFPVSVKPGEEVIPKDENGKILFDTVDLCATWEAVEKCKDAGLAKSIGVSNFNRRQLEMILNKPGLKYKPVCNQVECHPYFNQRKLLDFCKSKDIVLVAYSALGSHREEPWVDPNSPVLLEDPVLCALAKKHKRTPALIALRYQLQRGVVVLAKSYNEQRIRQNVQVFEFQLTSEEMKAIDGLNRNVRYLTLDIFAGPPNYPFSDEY
Experiment: Enzyme activity (NADPH) assay with s-tetralol, recombinant GST-AKR1C1;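 also: GST-fused AKR1C1 expressed in E. coli and purified by glutathione affinity, control wells received DMSO instead of compound, duplicate samples from a single experiment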
Assay type: biochemical
Parameters: made in house; host or cells: Escherichia coli JM109
Conditions: 2 μM compound; for slope: CON 0.0122; for enzyme activity: CON 192.295568; for inhibition at 2 µM: read-out: % inhibition

[1] = Supplementary Table 1, CON = 1, read-out: ratio (activity relative to CON)

Experimental: GST-tagged recombinant AKR1C isoforms expressed JM109 was grown in Luria-Bertani broth (100 μg⋅ml-1 ampicillin, pH = 7.0) at 37°C with orbital shaking at 220 rpm. When cells achieved an OD600 nm between 0.4 and 0.6, 0.3 mM final concentration of isopropyl β-D-1-thiogalactopyranoside (IPTG) was added to the cultures and incubated for an additional 12 h at 25°C. Cells were harvested by centrifugation at 8000 g for 10 min, and the cell pellets were stored at -80°C for storage. The pellets were resuspended in 1 × PBS, pH = 7.4 and lysed by ultrasonication at ice-cold temperature using an UH-03 union instrument. The purification of glutathione-S-transferase (GST)-fusion AKR1C1, AKR1C2, and AKR1C3 were then carried out using ÄKTA systems from GE Healthcare as described in Handbook. The recombinant proteins were eluted in 50 mM Tris–HCl (pH = 8.0) with 20 mM reduced glutathione, fresh preparedly. Protein concentrations were determined using the Bradford protein assay kit. All proteins were aliquoted and stored at -80°C containing 20% glycerol.
To screen for the indicated inhibitor, the assay mixture was added with additional DMSO or 2 μM compounds. […] The inhibition patterns were determined by fitting initial velocity and inhibitor concentration into inhibition models using Graphpad Prism 6.0. All inhibition data were obtained from single experiments, with samples conducted in duplicate.
Firstly, we overexpressed recombinant human AKR1C in E. coli in the form of a GST-fusion protein, and then purified it by affinity chromatography on glutathione-Sepharose.
To screen for the inhibitors of AKR1C1, we developed a readily accessible indirect NADPH generating-based assay that can be used for high-throughput inhibitors screening. […] Wells were included containing enzyme and no inhibitor or 2 μM inhibitor.

slope (Supplementary Table 1) | enzyme activity (Supplementary Table 1) [nmol/min/mg] | remaining activity at 2 µM [1] [%] | inhibition at 2 µM (Supplementary Table 1) [%] | % inhibition (Supplementary Table 1) [%] | ratio (activity relative to CON) (Supplementary Table 1, CON = 1) | remaining activity at 2 µM (Figure 1A, read-out: % Enzyme Activity) [%] | remaining activity at 2 µM (text on Figure 1A, read-out: inhibitory effect over AKR1C1 enzyme activity (% inhibition)) [%] | Compound
0.007797 | 122.898 | 63.9 | 36.1 | – | – | – | – | O=c1c(O[C@@H]2O[C@H](CO)[C@@H](O)[C@H](O)[C@H]2O)c(-c2ccc(O)c(O)c2)oc2cc(O)cc(O)c12 [Isoquercitrin]
0.009429 | 148.6125 | 77.3 | 22.7 | – | – | – | – | O=c1c2cc(O)c(O)cc2oc2cc(O)c([C@@H]3O[C@H](CO)[C@@H](O)[C@H](O)[C@H]3O)c(O)c12 [Mangiferin]
0.0133 | 209.2284 | 109 | -8.81 | – | – | – | – | COc1cc2c(c(OC)c1OC)-c1c(cc(OC)c(OC)c1OC)C[C@H](C)[C@H](C)C2 [Schisandrin A]
0.00272 | 42.8725 | 22.3 | 77.7 | – | – | 22.3 | 22.3 | COc1c(O)cc(O)c2c(=O)cc(-c3ccccc3)oc12 [Wogonin]
0.0129 | 202.8786 | – | – | -5.5 | 1.055 | – | – | C[C@]12C[C@@H](O)[C@@H]3C[C@@]1(O[C@@H]1O[C@H](CO)[C@@H](O)[C@H](O)[C@H]1O)[C@@]3(COC(=O)c1ccccc1)C(=O)O2 [Albiflorin]
0.0115 | 181.9828 | 94.6 | 5.36 | – | – | – | – | COc1ccc(-c2oc3cc(O)cc(O)c3c(=O)c2O)cc1 [Kaempferide]
0.009203 | 145.0548 | 75.4 | 24.6 | – | – | – | – | COc1cc2c(cc1CC=C(C)C)C(=O)C[C@@H](c1ccc(O)cc1)O2 [Bavachinin A]
0.008371 | 131.9499 | – | – | 31.38 | 0.6862 | – | – | Salvianolic acid B
0.0108 | 170.1838 | 88.5 | 11.5 | – | – | – | – | CC(C)=CCOc1c2ccoc2cc2oc(=O)ccc12 [Isoimperatorin]
0.006283 | 99.03 | 51.5 | 48.5 | – | – | – | – | COc1cc(/C=C/C(=O)CC(=O)/C=C/c2ccc(O)c(OC)c2)ccc1O [Curcumin]

The remaining lines, values behind:

Compound | slope (Supplementary Table 1) | enzyme activity (Supplementary Table 1) [nmol/min/mg] | remaining activity at 2 µM [1] [%] | inhibition at 2 µM (Supplementary Table 1) [%] | % inhibition (Supplementary Table 1) [%] | ratio (activity relative to CON) (Supplementary Table 1, CON = 1) | remaining activity at 2 µM (Figure 1A, read-out: % Enzyme Activity) [%] | remaining activity at 2 µM (text on Figure 1A, read-out: inhibitory effect over AKR1C1 enzyme activity (% inhibition)) [%]
C[C@@H]1O[C@@H](Oc2c(-c3ccc(O)c(O)c3)oc3cc(O)cc(O)c3c2=O)[C@H](O)[C@H](O)[C@H]1O [Quercitrin] | 0.0114 | 180.0013 | 93.6 | 6.39 | – | – | – | –
COc1cc(-c2oc3cc(O)cc(O)c3c(=O)c2O)ccc1O [Isorhamnetin] | 0.0125 | 197.0241 | 102 | -2.46 | – | – | – | –
CC(C)=CCc1cc2c(cc1O)oc(=O)c1c3ccc(O)cc3oc21 [Psoralidin] | 0.0119 | 187.9723 | – | – | 2.25 | 0.9775 | – | –
O=c1c(O)c(-c2ccccc2)oc2cc(O)cc(O)c12 [3,5,7-Trihydroxyflavone] | 0.00928 | 146.2707 | 76.1 | 23.9 | – | – | – | –
COc1cc2c(c(OC)c1OC)-c1c(cc3c(c1OC)OCO3)C[C@H](C)[C@@](C)(O)C2 [Schisandrol B] | 0.0137 | 215.6683 | 112 | -12.2 | – | – | – | –
COc1cc2c(=O)c(-c3ccc(O)cc3)coc2cc1O [Glycitein] | 0.0086 | 135.5526 | 70.5 | 29.5 | – | – | – | –
Echinacoside | 0.0131 | 205.9859 | – | – | -7.12 | 1.0712 | – | –
O=c1ccc2cc3ccoc3cc2o1 [Psoralen] | 0.0116 | 182.8834 | 95.1 | 4.89 | – | – | – | –
COc1c2c(cc3oc(CO[C@@H]4O[C@H](CO)[C@@H](O)[C@H](O)[C@H]4O)cc(=O)c13)O[C@H](C(C)(C)O)C2 [Prim-O-glucosylcimifugin] | 0.0124 | 195.2678 | – | – | -1.55 | 1.0155 | – | –
Pseuginsenoside F11 | 0.0116 | 183.1536 | – | – | 4.75 | 0.9525 | – | –
C[C@H]1CC[C@@H]2N(C1)C[C@H]1[C@@H]3C[C@H]4[C@@H](C[C@H](O)[C@H]5C[C@@H](O)CC[C@@]54C)[C@@H]3CC[C@@H]1[C@]2(C)O [Peimine] | 0.0116 | 183.3338 | – | – | 4.66 | 0.9534 | – | –
COc1ccc(-c2cc(=O)c3c(OC)c(OC)c(OC)c(OC)c3o2)cc1 [Tangeretin] | 0.0133 | 209.3185 | 109 | -8.85 | – | – | – | –
COc1ccc(-c2coc3cc(O)ccc3c2=O)cc1O [Calycosin] | 0.0116 | 183.0185 | 95.2 | 4.82 | – | – | – | –
Ginkgolide C | 0.008309 | 130.9591 | – | – | 31.9 | 0.681 | – | –
COc1c(O[C@@H]2O[C@H](C(=O)O)[C@@H](O)[C@H](O)[C@H]2O)cc(O)c2c(=O)cc(-c3ccccc3)oc12 [Wogonoside] | 0.0133 | 209.3635 | – | – | -8.88 | 1.0888 | – | –
C[C@@H]1CC[C@@]2(OC1)O[C@H]1C[C@H]3[C@@H]4CC=C5C[C@@H](O[C@@H]6O[C@H](CO)[C@@H](O[C@@H]7O[C@@H](C)[C@H](O)[C@@H](O)[C@H]7O)[C@H](O)[C@H]6O[C@@H]6O[C@@H](C)[C@H](O)[C@@H](O)[C@H]6O)CC[C@]5(C)[C@H]4CC[C@]3(C)[C@H]1[C@@H]2C [Dioscin] | 0.0134 | 211.8854 | 110 | -10.2 | – | – | – | –
COc1c2ccoc2cc2oc(=O)ccc12 [5-Methoxypsoralen] | 0.0121 | 190.1339 | 98.9 | 1.12 | – | – | – | –
Schisantherin A | 0.0132 | 208.778 | – | – | -8.57 | 1.0857 | – | –
COc1cc(O)c2c(c1)C(=O)c1cc(C)cc(O)c1C2=O [Emodin-3-methyl ether] | 0.0128 | 201.0772 | – | – | -4.57 | 1.0457 | – | –
COc1cc(C(=O)OCCCCN=C(N)N)cc(OC)c1O.Cl [Leonurine hydrochloride] | 0.007226 | 113.8912 | – | – | 40.77 | 0.5923 | – | –
